Target: T1, recombinant human POP (Homo sapiens, UniProt P48147)
T1 construct: purchased USBiological, MA
T1 sequence (P48147 1-710): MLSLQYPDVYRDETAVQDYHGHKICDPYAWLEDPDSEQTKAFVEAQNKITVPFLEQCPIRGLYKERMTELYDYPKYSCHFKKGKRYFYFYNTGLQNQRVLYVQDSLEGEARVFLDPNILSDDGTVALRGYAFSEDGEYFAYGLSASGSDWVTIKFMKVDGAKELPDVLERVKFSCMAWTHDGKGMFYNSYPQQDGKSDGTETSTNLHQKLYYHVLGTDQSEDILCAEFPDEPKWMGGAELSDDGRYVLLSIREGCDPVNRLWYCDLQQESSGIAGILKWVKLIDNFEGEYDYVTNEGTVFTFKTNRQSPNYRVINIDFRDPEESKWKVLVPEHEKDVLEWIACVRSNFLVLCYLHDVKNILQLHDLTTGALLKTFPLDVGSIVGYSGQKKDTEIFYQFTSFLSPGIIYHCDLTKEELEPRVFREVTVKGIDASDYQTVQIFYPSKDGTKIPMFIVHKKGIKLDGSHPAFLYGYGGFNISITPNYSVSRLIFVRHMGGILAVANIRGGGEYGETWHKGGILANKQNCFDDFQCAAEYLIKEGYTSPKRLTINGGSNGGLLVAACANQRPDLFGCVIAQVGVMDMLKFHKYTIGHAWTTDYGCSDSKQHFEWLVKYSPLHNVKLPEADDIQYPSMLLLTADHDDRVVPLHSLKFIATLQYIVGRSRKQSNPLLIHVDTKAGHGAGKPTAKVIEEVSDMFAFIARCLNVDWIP
Assay: POP enzyme inhibition colorimetric assay (recombinant human POP)
Format: biochemical
Settings: 0.04 mg/ml; read-out: inhibition against human POP
Method: FIG. 3 illustrates the inhibition activity of FGS03 against Flavobacterium and recombinant human POP. FGS03 is tested at final concentrations of 0.02 mg/ml and 0.04 mg/ml respectively. Positive control is PE Inhibitor II, Calbiochem, USA. Each sample is tested in triplicate. Data represented as mean value with standard deviation, n=3.
The POP inhibitory activity of compound was evaluated using an enzyme inhibition assay. A colorimetric assay was set up using Flavobacterium and recombinant human POP enzymes. The POP enzyme solutions obtained from Flavobacterium (0.5 U mL^−1 giving 0.0416 units per well) and human (USBiological, MA with working concentration 0.006 mg/ml) were added to the 96-well plates containing sample extracts and phosphate buffer (100 mM, pH 7.0). The reaction was initiated with the addition of enzyme substrate, Z-Gly-Pro-4-nitroanilide (2 mM in 40% dioxane) and incubated at 30° C. for 15 minutes. Stopper buffer (2 M acetate buffer, pH 4.0 with 10% Triton-X) was added to stop the enzyme reaction. The released p-nitroanilide was determined colorimetrically with a plate reader at 414 nm. The inhibition activity was calculated using the formula:
[formula] • where blank=control without the inhibitor • OD=change in optical density during the assay.

inhibition at 40 µg/mL: 80%
SMILES: CCCCCCCCCCCc1cc(O)cc(O[C@H]2O[C@@H](C(=O)O)[C@@H](O)[C@H](O)[C@H]2O)c1C(=O)O [FGS03, (2R,3S,4S,5R,6R)-6-(2-carboxy-5-hydroxy-3-undecylphenoxy)-3,4,5-trihydroxytetrahydro-2H-pyran-2-carboxylic acid]

Reference: patent US20240409572A1, “COMPOUND FOR TREATING NEURODEGENERATIVE DISEASES AND ITS ISOLATION METHOD THEREOF” (SARAWAK BIODIVERSITY COUNCIL, priority 2020, published 2024)
